SMILES strings stand for the structures. Where “and” joins values, the source holds several entries; their conditions need not be identical. Equal entries are not always repeated.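 Method: 48-hour compound exposure of cells in 96-well plates, five concentrations, linear interpolation of endpoints. GI50 marks 50% less growth.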 Calls of active or inactive are those of the source. Rule as the data show it: active = GI50 up to about 1.1 µM and inactive = higher.

What all share (experiment): NCI anticancer screen, dose series, 48 h
For experiment [1], the system named is CCRF-CEM.
For experiment [2], the system named is Hs-578T.
The subject of experiment [3] is NCI-H522.
Experiment [4] concerns K562.
The subject of experiment [5] is NCI/ADR-RES.
For experiment [6], the system named is SN12C.
The subject of experiment [7] is SK-MEL-2.
The test system of experiment [8] is UACC-62.
Experiment [9] has as its system HCT-116.
Experiment [10] deals with SF-268.
In experiment [11] the test system is A549.
For experiment [12], the system named is OVCAR-5.
In experiment [13] the test system is SF-295.
The subject of experiment [14] is T47D.
The test system of experiment [15] is MDA-MB-231.
Experiment [16] deals with 786-0.
The subject of experiment [17] is LOX IMVI.
Experiment [18] has as its system HOP-62.
The subject of experiment [19] is COLO 205.
Experiment [20] has as its system MDA-N.

As for `COc1cc2c(/C=C3/C(=O)N(C)c4ccc(O)cc43)c(Cl)[nH]c2cc1C`, the GI50 in [1] is 0.284 µM (active); in [2], 0.269 µM (active); in experiment [3] it was 0.404 µM (active); in experiment [4], 0.124 µM (active); in experiment [5], 0.703 µM (active); in experiment [6], 0.776 µM (active). Moreover, the GI50 in [7] was 0.641 µM (active); in experiment [8] it was 0.281 µM (active); in experiment [9], 0.361 µM (active); in [10] it was 2.07 µM (inactive); in [11], 0.667 µM (active); in experiment [12] it was 3.79 µM (inactive). Further, the GI50 in [13] is 0.262 µM (active); in experiment [14] it was 3.41 µM (inactive); in [15], 0.738 µM (active); in experiment [16], 0.362 µM (active); in [17], 0.594 µM (active); in experiment [18] it was 0.327 µM (active). Further, the GI50 in experiment [19] was 0.414 µM (active).
For `Cc1nc2ccc(F)cc2c(Cl)c1CCCl`, the GI50 was 18.6 µM (inactive) in [1]; 43.9 µM (inactive) in experiment [2]; 31.5 µM (inactive) in experiment [3]; 25.8 µM (inactive) in experiment [4]; 43 µM (inactive) in experiment [5]; 27.7 µM (inactive) in [8]. Moreover, the GI50 is 26 µM (inactive) in experiment [9]; 37.1 µM (inactive) in experiment [10]; 42.3 µM (inactive) in [11]; 51.1 µM (inactive) in [13]; 38.6 µM (inactive) in experiment [14]; 27 µM (inactive) in experiment [15]. The GI50 in experiment [16] is 34.1 µM (inactive); in [17], 25.2 µM (inactive); in [18] it was 84.9 µM (inactive); in experiment [19], 20 µM (inactive).
For `CC(C)(CN1CCCCC1)C(=O)CC(SCCS(=O)(=O)O)c1ccc(Cl)c(Cl)c1` (configuration not stated), the GI50 in experiment [1] was 2.07 µM (inactive); in [20] it was 3.09 µM (inactive); in experiment [2], 2.8 µM (inactive); in experiment [3], 3.19 µM (inactive); in experiment [4], 2.42 µM (inactive); in experiment [5], 3.21 µM (inactive). Besides, the GI50 in [6] was 3.46 µM (inactive); in experiment [7], 24 µM (inactive); in [8] it was 3.13 µM (inactive); in [9] it was 2.59 µM (inactive); in experiment [10], 3.72 µM (inactive); in experiment [11] it was 5.98 µM (inactive). Further, the GI50 is 3.78 µM (inactive) in experiment [12]; 3.25 µM (inactive) in experiment [13]; 2.08 µM (inactive) in [15]; 1.86 µM (inactive) in experiment [16]; 6.47 µM (inactive) in [18]; 2.58 µM (inactive) in experiment [19].
In the case of `Cc1cccc(Nc2cnc(N)nc2N)c1`, the GI50 in experiment [1], in experiment [20], in [3], in [4], in experiment [5] and in [6] was > 100 µM (inactive) each time. The GI50 in [7], in experiment [8], in experiment [9], in [11], in experiment [13] and in experiment [14] was > 100 µM (inactive) throughout. The GI50 in experiment [15], in experiment [16], in experiment [17], in experiment [18] and in [19] was > 100 µM (inactive) in each case.
On to `CC1=CC(=O)CC2(C)CCC(C(C)CC(=O)CC(C)C)CC12OO` (configuration not stated), for which the GI50 is 20.7 µM (inactive) and 19.6 µM (inactive) in experiment [1]; 18.8 µM (inactive) and 18.1 µM (inactive) in experiment [20]; 46.9 µM (inactive) and 28.4 µM (inactive) in [2]; 10.9 µM (inactive) and 5.53 µM (inactive) in experiment [4]; 24.8 µM (inactive) and 23.1 µM (inactive) in experiment [5]; 17.6 µM (inactive) and 18.7 µM (inactive) in experiment [6]. Besides, the GI50 in [7] was 16.9 µM (inactive) and 20.2 µM (inactive); in experiment [8], 20.8 µM (inactive) and 17.6 µM (inactive); in experiment [9], 16.2 µM (inactive) and 16.1 µM (inactive); in experiment [10], 17 µM (inactive) and 20 µM (inactive); in [11], 16.7 µM (inactive) and 15.4 µM (inactive); in experiment [12], 19.9 µM (inactive) and 19.4 µM (inactive). In addition, the GI50 is 16.4 µM (inactive) and 17 µM (inactive) in experiment [13]; 15.1 µM (inactive) and 18.5 µM (inactive) in experiment [15]; 10.1 µM (inactive) and 13.1 µM (inactive) in experiment [16]; 14.6 µM (inactive) and 16.4 µM (inactive) in experiment [17]; 18.8 µM (inactive) and 14.3 µM (inactive) in experiment [19].
As to `COc1cccc(-c2cccc(SC)n2)n1`, the GI50 is 18.2 µM (inactive) in [1]; 29.6 µM (inactive) in [20]; 26.2 µM (inactive) in experiment [4]; 28.4 µM (inactive) in experiment [5]; 36.8 µM (inactive) in [6]; 36.3 µM (inactive) in experiment [7]. Besides, the GI50 was 36.2 µM (inactive) in experiment [8]; 28.4 µM (inactive) in experiment [9]; 23.8 µM (inactive) in [11]; 29.2 µM (inactive) in experiment [12]; 34.4 µM (inactive) in experiment [13]; 18.2 µM (inactive) in [14]. Further, the GI50 in experiment [15] was 40.4 µM (inactive); in experiment [16], 28.8 µM (inactive); in experiment [17], 33.1 µM (inactive); in experiment [18], 27.9 µM (inactive); in experiment [19] it was 19.1 µM (inactive).
Regarding `OCCOCn1nncc1Cn1ncc2c(O)ncnc21`, the GI50 in experiment [2] was > 100 µM (inactive); in experiment [3], 60.8 µM (inactive); in experiment [4] it was 43.6 µM (inactive); in experiment [5], > 100 µM (inactive); in experiment [6] it was > 100 µM (inactive); in experiment [7], 54.1 µM (inactive). Besides, the GI50 was > 100 µM (inactive) in experiment [8]; > 100 µM (inactive) in [9]; > 100 µM (inactive) in experiment [10]; 97.9 µM (inactive) in experiment [11]; > 100 µM (inactive) in experiment [12]; > 100 µM (inactive) in [13]. Moreover, the GI50 is > 100 µM (inactive) in [14]; > 100 µM (inactive) in [15]; 52 µM (inactive) in experiment [16]; 74.3 µM (inactive) in experiment [17]; > 100 µM (inactive) in [18]; 97.7 µM (inactive) in [19].
For `CC1(C)CN(CC(=O)O)CC(Cc2ccc(OCC(=O)O)cc2)N(CC(=O)O)CC(C)(C)SS1` (configuration not stated), the GI50 in [20], in experiment [2], in experiment [3], in experiment [4], in experiment [5] and in experiment [6] was > 100 µM (inactive) throughout. The GI50 in experiment [7], in experiment [8], in experiment [9], in experiment [10], in experiment [11] and in experiment [12] was > 100 µM (inactive) in each case. In addition, the GI50 in experiment [13], in [15], in experiment [16], in experiment [17], in experiment [18] and in experiment [19] was > 100 µM (inactive) each time.
Turning to `COC(=O)[C@@](C)(COC(=O)C(C)(C)C)NC(=O)OC(C)(C)C`, the GI50 in experiment [1], in experiment [20], in experiment [3], in experiment [4], in experiment [5] and in [6] was > 100 µM (inactive) throughout. Also, the GI50 in [7], in [8], in experiment [9], in [10], in experiment [11] and in experiment [12] was > 100 µM (inactive) in each case. Moreover, the GI50 in experiment [13], in experiment [14], in experiment [15], in experiment [16], in experiment [17] and in [18] was > 100 µM (inactive) throughout. Besides, in experiment [19], the GI50 was > 100 µM (inactive).
Turning to `NC1CC(=O)c2c1sc(Cl)c2Cl` (configuration not stated), the GI50 in experiment [1], in experiment [20], in experiment [4], in experiment [5], in experiment [6] and in experiment [7] was > 100 µM (inactive) each time. Further, the GI50 in [8], in experiment [9], in experiment [10], in experiment [11], in experiment [12] and in experiment [14] was > 100 µM (inactive) throughout. The GI50 in [15], in experiment [16], in [18] and in [19] was > 100 µM (inactive) in each case.
Take `COc1ccc(C2CC(c3cc4c(C)c(C(=O)c5ccccc5)oc4cc3O)=Nc3ccccc3S2)cc1OC` (configuration not stated): the GI50 in experiment [1] is 70.8 µM (inactive); in experiment [20], > 40.2 µM (inactive); in experiment [2] it was 25.8 µM (inactive); in experiment [3], 19.1 µM (inactive); in [4], > 72.9 µM (inactive); in [5], > 58.1 µM (inactive). Further, the GI50 in experiment [6] is > 100 µM (inactive); in experiment [7], > 59.2 µM (inactive); in experiment [8], > 51.4 µM (inactive); in experiment [9] it was > 90.4 µM (inactive); in [10] it was > 42.7 µM (inactive); in experiment [11], 96.8 µM (inactive). Moreover, the GI50 in experiment [12] was > 100 µM (inactive); in experiment [15], > 87.3 µM (inactive); in experiment [16], 47.6 µM (inactive); in [17], > 100 µM (inactive); in [19], > 100 µM (inactive).

(Values after ChEMBL document CHEMBL1201862, “PubChem BioAssay data set” (2004).)
